Assay results published in patent US20250249026A1 (priority 2019, published 2025).
“And” between values parts separate entries of the source, which are not always exact repeats. Equal values may be shown once. “Also recorded” adds a separate entry of the source.

Assays:
[1] = system: iNOS; experiment: Expression of iNOS in macrophages induced by LPS (Embodiment 8); format: cell-based, Mouse; conditions: 10 μmol/L, LPS 0.1 μg/mL, 24 h, ELISA, FIG. 6
Procedure: 1. Cell line: Macrophage RAW264.7.
2. Reagents: LPS (Sigma); iNOS detection kit (Stressgen); MTT (Biotopped).
The level of iNOS protein in macrophages was determined by ELISA using an anti-human iNOS polyclonal antibody (Stressgen). The number of macrophages was determined by using an automatic flow cytometer.

[2] = system: Macrophage RAW264.7; experiment: NO secretion of macrophage RAW264.7 (Embodiment 12); format: cell-based, Mouse; conditions: for Lysate NO secretion amount / Supernatant NO secretion amount: Folate 15.625 μM, LPS group 1 μg/mL, mean, n = 6
Procedure: • 1. Cell line: Macrophage RAW264.7. • 2. […] II. Experimental scheme
An absorbance value at 520 nm was expressed as mean±standard deviation. NO secretion rate=(OD sample well-OD blank well)/(OD normal well-OD blank well)×100%, and the NO secretion amount was calculated according to a standard curve.

[3] = system: Macrophage RAW264.7; conditions: 15.625, 62.5, 250 μmol/L; FIGS. 10-12
[4] = Removing peroxynitrite, SIN-1 as donor (Embodiment 9); format: biochemical; conditions: SIN-1 1 μmol/L, 1, 10, 100 μmol/L, 302 nm, FIG. 7
Procedure: 3-morpholino-sydnonimine (SIN-1) as a peroxynitrite donor was added to 15 test tubes at a concentration of 1 μmol/L. 5-methyltetrahydrofolate calcium was added to test tubes containing the SIN-1 solution to the final concentrations of 1 μmol/L, 10 μmol/L, and 100 μmol/L respectively; dehydroascorbic acid was added to test tubes containing the SIN-1 solution to the final concentrations of 1 μmol/L, 10 μmol/L, and 100 μmol/L respectively; glutathione was added to test tubes containing the SIN-1 solution to the final concentrations of 1 μmol/L, 10 μmol/L, and 100 μmol/L respectively; NMN was added to test tubes containing the SIN-1 solution to the final concentrations of 1 μmol/L, 10 μmol/L, and 100 μmol/L respectively; and tetrahydrobiopterin was added to test tubes containing the SIN-1 solution to the final concentrations of 1 μmol/L, 10 μmol/L, and 100 μmol/L respectively. The concentration of peroxynitrite was determined by spectrophotometry at a detection wavelength of 302 nm.

[5] = system: influenza; format: in vivo, human
[6] = system: Mycoplasma pneumoniae (ATCCFH15531); experiment: In vivo anti-mycoplasma pneumonia experiment (Embodiment 21); conditions: azithromycin 40 mg/kg; composition C 40 and 80 mg/kg; 10 days
[7] = randomized controlled trial / meta analyses from the literature; cited from earlier work
[8] = system: Pseudomonas aeruginosa; experiment: Gram-negative bacteria in vivo (Embodiment 18); parameters: species or system BAL B/C male mice; conditions: penicillin 450 mg/kg by gavage 30 min and 24 h after infection
Procedure: […] BAL B/C male mice weighing 18-22 g were divided into 6 groups with 8 mice in each group. […] After a bacterial solution of Pseudomonas aeruginosa was cultured by streaking on an LB solid medium, a typical colony was picked and inoculated into an ordinary LB liquid medium. After overnight shaking culture at 37° C. for about 12 h, the culture was centrifuged at 4000 r/min for 3 min, the supernatant was discarded, and the bacteria were resuspended in normal saline for later use. The BAL B/C male mice in each experimental group and three control groups were intraperitoneally injected with a fatal dose of Pseudomonas aeruginosa solution at a dose of 500 μL/mouse. 30 min after the BAL B/C male mice in the experimental groups were infected with the bacteria, the medium-dose composition group and the high-dose composition group were administered with drugs by gavage, the penicillin group and the meropenem group were also administered with drugs by gavage, and the normal group was administered with purified water by gavage. 24 h after administration, the BAL B/C male mice in each experimental group and control group were administered for the second time, and the drug type and dosage were the same as the administration for the first time. The BAL B/C male mice were observed every 24 h after administration, and their survival was recorded. All animals were sacrificed on the day 15.

[9] = listed as 5-methyltetrahydrofolic acid
[10] = Folate capsules 400 mg/capsule, per patient, row Mean = mean

6S-5-methyltetrahydrofolate calcium
effect on expression of iNOS in macrophages induced by LPS [1, 9]: did not affect; also recorded: almost no effect
Lysate NO secretion amount ([2]; 1 μg/mL LPS induction): 1.725 µM
Supernatant NO secretion amount ([2]; 1 μg/mL LPS induction): 36.814 µM
effect on secretion/expression of NO in macrophages ([2]; 15.625 μmol/L, macrophages induced by LPS, listed as 5-methyltetrahydrofolic acid): did not inhibit; also recorded: hardly affects
Lysate NO secretion amount ([2]; No induction): 3.863 µM
Supernatant NO secretion amount ([2]; No induction): 1.714 µM
effect on secretion of NO when no LPS stimulation is provided ([2]; low concentration, no LPS): promote the secretion of NO
effect on expression of macrophages and inflammatory factors induced by LPS [3]: no significant effect
peroxynitrite scavenging [4, 9]: excellent peroxynitrite scavenging effects; also recorded: higher ability to scavenge peroxynitrite
Basic rehabilitation (symptoms other than tonsillitis and sore throat disappeared) [5, 10]: 33 hours (2×) and 35 hours and 13 hours and 12 hours (2×) and 17 hours (2×) and 32 hours (3×) and 8 hours and 43 hours and 18 hours and 34 hours and 15 hours and 11 hours and 56 hours and 24 hours and 10 hours and 46 hours and 58 hours and 53 hours and 14 hours
Complete rehabilitation (all symptoms disappeared) [5, 10]: 33 hours (2×) and 35 hours and 13 hours (3×) and 12 hours and 17 hours (2×) and 32 hours (2×) and 8 hours and 43 hours and 36 hours (2×) and 48 hours and 56 hours and 46 hours (3×) and 44 hours and 58 hours (2×) and 14 hours
disappearance time of symptoms: Cough [5, 10]: 33 hours (2×) and 17 hours and 29 hours and 46 hours (2×) and 44 hours and 13 hours and 58 hours
disappearance time of symptoms: Dizziness and fullness in head [5, 10]: 48 h and 9 h
disappearance time of symptoms: Dry and itchy throat [5, 10]: 15 h
disappearance time of symptoms: Fatigue [5, 10]: 35 hours and 8 hours (3×) and 12 hours (3×) and 15 hours and 10 hours (4×) and 33 hours
disappearance time of symptoms: Headache [5, 10]: 13 hours and 12 hours (4×) and 32 hours (2×) and 8 hours (3×) and 9 hours and 10 hours (2×) and 14 hours
disappearance time of symptoms: Inappetence [5, 10]: 13 h
disappearance time of symptoms: Intolerance of cold and cold limbs [5, 10]: 10 h
disappearance time of symptoms: Low fever [5, 10]: 10 h
disappearance time of symptoms: Muscular soreness [5, 10]: 16 hours and 13 hours and 32 hours and 9 hours and 15 hours and 10 hours (2×) and 14 hours
disappearance time of symptoms: Nasal stuffiness [5, 10]: 9 hours and 17 hours and 32 hours (2×) and 8 hours and 43 hours and 12 hours (3×) and 20 hours and 15 hours (2×) and 56 hours and 33 hours and 24 hours and 10 hours and 41 hours
disappearance time of symptoms: Running nose [5, 10]: 11 hours (2×) and 13 hours and 32 hours and 8 hours and 9 hours and 20 hours and 15 hours and 12 hours (3×) and 33 hours (2×) and 46 hours and 53 hours and 17 hours and 14 hours
disappearance time of symptoms: Sneezing [5, 10]: 32 hours (2×) and 9 hours (2×) and 18 hours and 34 hours and 15 hours and 12 hours (3×) and 8 hours and 33 hours and 10 hours and 17 hours
disappearance time of symptoms: Sore throat [5, 10]: 33 hours (2×) and 12 hours (2×) and 32 hours (3×) and 29 hours and 36 hours (2×) and 46 hours and 10 hours and 54 hours and 58 hours and 14 hours
time until the patients' influenza almost all healed ([5]; data in both Table 1 and Table 2): ≤ 2 days

NC(=O)c1ccc[n+]([C@@H]2O[C@H](COP(=O)([O-])O)[C@@H](O)[C@H]2O)c1 [NMN, nicotinamide mononucleotide]
effect on expression of iNOS in macrophages induced by LPS [1]: did not affect; also recorded: almost no effect
peroxynitrite scavenging [4]: excellent peroxynitrite scavenging effects; also recorded: higher ability to scavenge peroxynitrite

CC[C@H]1OC(=O)[C@H](C)[C@@H](O[C@H]2C[C@@](C)(OC)[C@@H](O)[C@H](C)O2)[C@H](C)[C@@H](O[C@@H]2O[C@H](C)C[C@H](N(C)C)[C@H]2O)[C@](C)(O)C[C@@H](C)CN(C)[C@H](C)[C@@H](O)[C@]1(C)O [azithromycin]
histopathological examination of the lung tissue [6]: Mild interstitial pneumonia

O=C1O[C@H]([C@@H](O)CO)C(=O)C1=O [dehydroascorbic acid]
effect on expression of iNOS in macrophages induced by LPS [1]: almost no effect
peroxynitrite scavenging [4]: excellent peroxynitrite scavenging effects; also recorded: higher ability to scavenge peroxynitrite

N[C@@H](CCC(=O)N[C@@H](CS)C(=O)NCC(=O)O)C(=O)O [glutathione, reference compound]
effect on expression of iNOS in macrophages induced by LPS [1]: did not affect; also recorded: almost no effect

C[C@]12CCC(=O)C=C1CC[C@@H]1[C@@H]2[C@@H](O)C[C@@]2(C)[C@H]1CC[C@]2(O)C(=O)CO [hydrocortisone]
mortality of patients with sepsis [7]: could not reduce

O=C1O[C@H]([C@@H](O)CO)C(O)=C1O [vitamin C]
mortality of patients with sepsis [7]: cannot improve

lipopolysaccharide [LPS, reference compound]
Lysate NO secretion amount ([2]; 1 μg/mL LPS induction): 1.6 µM
Supernatant NO secretion amount ([2]; 1 μg/mL LPS induction): 37.343 µM
Lysate NO secretion amount ([2]; No induction): 1.95 µM
Supernatant NO secretion amount ([2]; No induction): 42.714 µM

penicillin
outcome of mice infected with the fatal dose of Pseudomonas aeruginosa [8]: all the mice in the penicillin group died
